Experimental data: patent US20260216057A1, “PHARMACEUTICAL COMPOSITIONS FOR HERPES VIRUS” (priority 2022, published 2026)

Tests used:
[1] = Example 6: pritelivir (dihydrate) suspension stability and solubility study; assay type: physicochemical; conditions: 0.9% NaCl + 0.5% polysorbate 80 vehicle, RT
Description: An aqueous suspension of crystalline pritelivir free base (dihydrate) in a 0.9% NaCl+0.5% polysorbate 80 vehicle was prepared as follows: • 1) Vehicle (0.9% w/w NaCl and 0.5% w/w polysorbate 80) was prepared by dissolving NaCl and polysorbate 80 in water. • 2) Excess amounts of pritelivir (dihydrate) were weighed and added to the vehicle to achieve −3 mg/mL suspension. • 3) The suspension was sonicated for 15 minutes, then agitated at 500 rpm at room temperature. • 4) At 24 hours, the suspension was filtrated and the filter cake was dried and analyzed by XRPD. The filtrate was analyzed by HPLC to determine solubility. The HPLC methodology and conditions used to quantify pritelivir in the filtrate are described in Table 11.

[2] = cited from earlier work
[3] = tested on: recurrent genital herpes; conditions: oral 100, 200, 400, 1200 mg; patients with recurrent genital herpes; cited from earlier work
[4] = tested on: recurrent genital HSV-2; conditions: 28 days daily oral dosing; pritelivir 100 mg (after 400 mg loading dose), valacyclovir 500 mg; cited from earlier work

Cc1nc(N(C)C(=O)Cc2ccc(-c3ccccn3)cc2)sc1S(N)(=O)=O [Dihydrate, N-methyl-N-(4-methyl-5-sulfamoyl-1,3-thiazol-2-yl)-2-[4-(pyridin-2-yl)phenyl]acetamide]
solubility at 24 h ([1]; 0.9% NaCl + 0.5% polysorbate 80 aqueous vehicle, aqueous with cosolvent or surfactant or cyclodextrin, thermodynamic from solid, n = 1): 16.5 µg/mL | Insoluble material (solid form by XRPD after solubility experiment) ([1]; 24 hours): Dihydrate

Nc1nc2c(ncn2COCCO)c(=O)[nH]1 [acyclovir]
human bioavailability following oral administration [2]: 10-20%

Cc1cccc(C)c1N(CC(=O)Nc1ccc(-c2ncon2)cc1)C(=O)C1CCS(=O)(=O)CC1 [amenamevir]
time to lesion healing vs placebo [3]: only significantly different between the very highest 1200 mg single dose group and the placebo-tested group

CC(C)[C@H](N)C(=O)OCCOCn1cnc2c(=O)[nH]c(N)nc21 [valacyclovir]
HSV shedding, % of genital swabs analysed [4]: 5.3%
